This note sets out measurements from patent US10787432B2, “N-[(pyridyloxy)propanyl]benzamides” (Boehringer Ingelheim International GmbH, priority 2016, dated 2020).

The target of the first data set is T1, human Orexin 1 receptor (Homo sapiens, UniProt O43613).
T1 construct: stably expressing the full-length human Orexin 1 receptor; expressed in transfected cells; host or cells: CHO-K1 (CHO-K1/hOX1), co-expressing aequorin
T1 sequence (O43613 1-425): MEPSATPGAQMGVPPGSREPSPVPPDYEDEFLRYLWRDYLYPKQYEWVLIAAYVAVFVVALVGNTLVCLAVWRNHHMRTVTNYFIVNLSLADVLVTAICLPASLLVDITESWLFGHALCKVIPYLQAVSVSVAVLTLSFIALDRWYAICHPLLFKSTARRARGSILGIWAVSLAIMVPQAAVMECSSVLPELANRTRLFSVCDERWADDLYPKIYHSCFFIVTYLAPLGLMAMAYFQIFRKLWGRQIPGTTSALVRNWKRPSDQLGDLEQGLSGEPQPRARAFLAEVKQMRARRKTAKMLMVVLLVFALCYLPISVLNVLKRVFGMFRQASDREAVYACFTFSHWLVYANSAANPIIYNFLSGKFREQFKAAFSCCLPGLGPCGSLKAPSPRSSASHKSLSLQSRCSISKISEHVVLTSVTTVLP
The data set can be described thus: Assay A: In vitro testing of OX1R potency: OX1R IP1 (HTRF, CHO-K1/hOX1 cells, Orexin A as agonist). Type of data set: cell-based. Conditions: OX1R Kb at 0.5 nM Orexin A.
For `CCN(C(=O)c1cccc(F)c1-c1nnc(C)o1)[C@@H](C)COc1ccc(C(F)(F)F)cn1` [Example 18], the “OX2R Kb/OX1R Kb” value was determined as 273.

Regarding `CCN(C(=O)c1c(F)cccc1-c1ncccn1)[C@@H](C)COc1ccc(C(F)(F)F)cn1` [Example 116], the “OX2R Kb/OX1R Kb” value is given as 132.

The data set is the same for the next values; noted with them: OX1R Kb at 0.5 nM and 50 nM Orexin A.
Regarding `CCN(C(=O)c1ccc(F)cc1-n1nccn1)[C@@H](C)COc1ccc(Cl)cn1` [Example 28], the “OX2R Kb/OX1R Kb” value was found to be 51.

The same data set, now with this note: OX1R Kb at 50 nM Orexin A.
Turning to `CCN(C(=O)c1c(-n2nccn2)ccc(C)c1F)[C@@H](C)COc1ccc(C(F)(F)F)cn1` [Example 92], the “OX2R Kb/OX1R Kb” value came to 640.

Turning to `CCN(C(=O)c1cccc(Cl)c1-n1nccn1)[C@@H](C)COc1ccc(OC(F)(F)F)cn1` [Example 134], the “OX2R Kb/OX1R Kb” value is recorded as 86.

`CCN(C(=O)c1cccc(F)c1-n1nccn1)[C@@H](C)COc1ncc(C(F)(F)F)cc1Cl` [Example 110]: the “OX2R Kb/OX1R Kb” value is given as 312.

For the compound `CCN(C(=O)c1ccc(Cl)cc1-n1nccn1)[C@@H](C)COc1ccc(Cl)cn1` [Example 45], the “OX2R Kb/OX1R Kb” value is listed as 59.

For `CCN(C(=O)c1cc(C#N)ccc1-n1nccn1)[C@@H](C)COc1ncc(C(F)(F)F)cc1F` [Example 57], the “OX2R Kb/OX1R Kb” value was 214.

Regarding `CCN(C(=O)c1ccccc1-c1noc(C)n1)[C@@H](C)COc1ccc(C(F)(F)F)cn1` [Example 123], the “OX2R Kb/OX1R Kb” value is reported as 200.

For the compound `CCN(C(=O)c1c(F)cccc1-c1ncccn1)[C@@H](C)COc1ccc(C(F)(F)F)cn1` [Example 116], the “OX2R Kb/OX1R Kb” value is recorded as 205.

Staying with this data set, now noted: Orexin A 0.5 nM and 50 nM; read-out: OX1R Kb (Orexin A concentration used).
Turning to `CCN(C(=O)c1ccc(F)cc1-n1nccn1)[C@@H](C)COc1ccc(Cl)cn1` [Example 28], the Kb is 1.7 nM.

The same data set, now with this note: Orexin A 0.5 nM; read-out: OX1R Kb (Orexin A concentration used).
Turning to `CCN(C(=O)c1cccc(F)c1-c1nnc(C)o1)[C@@H](C)COc1ccc(C(F)(F)F)cn1` [Example 18], the Kb was 0.8 nM.

Regarding `CCN(C(=O)c1c(F)cccc1-c1ncccn1)[C@@H](C)COc1ccc(C(F)(F)F)cn1` [Example 116], the Kb turned out to be 0.34 nM.

The data set is the same for the next values; noted with them: Orexin A 50 nM; read-out: OX1R Kb (Orexin A concentration used).
With `CCN(C(=O)c1c(-n2nccn2)ccc(C)c1F)[C@@H](C)COc1ccc(C(F)(F)F)cn1` [Example 92], the Kb is 0.025 nM.

For `CCN(C(=O)c1cccc(Cl)c1-n1nccn1)[C@@H](C)COc1ccc(OC(F)(F)F)cn1` [Example 134], the Kb turned out to be 0.14 nM.

As for `CCN(C(=O)c1cccc(F)c1-n1nccn1)[C@@H](C)COc1ncc(C(F)(F)F)cc1Cl` [Example 110], the Kb was 0.17 nM.

As for `CCN(C(=O)c1ccc(Cl)cc1-n1nccn1)[C@@H](C)COc1ccc(Cl)cn1` [Example 45], the Kb stood at 0.354 nM.

`CCN(C(=O)c1cc(C#N)ccc1-n1nccn1)[C@@H](C)COc1ncc(C(F)(F)F)cc1F` [Example 57]: the Kb is 0.95 nM.

Take `CCN(C(=O)c1ccccc1-c1noc(C)n1)[C@@H](C)COc1ccc(C(F)(F)F)cn1` [Example 123]: the Kb was 0.17 nM.

In the case of `CCN(C(=O)c1c(F)cccc1-c1ncccn1)[C@@H](C)COc1ccc(C(F)(F)F)cn1` [Example 116], the Kb worked out at 0.22 nM.

The target in a further data set is T2, human orexin 2 receptor (Homo sapiens, UniProt O43614).
T2 construct: stably expressing the full-length human orexin 2 receptor; expressed in transfected cells; host or cells: CHO-K1 (CHO-K1/hOX2), co-expressing aequorin
T2 sequence (O43614 1-444): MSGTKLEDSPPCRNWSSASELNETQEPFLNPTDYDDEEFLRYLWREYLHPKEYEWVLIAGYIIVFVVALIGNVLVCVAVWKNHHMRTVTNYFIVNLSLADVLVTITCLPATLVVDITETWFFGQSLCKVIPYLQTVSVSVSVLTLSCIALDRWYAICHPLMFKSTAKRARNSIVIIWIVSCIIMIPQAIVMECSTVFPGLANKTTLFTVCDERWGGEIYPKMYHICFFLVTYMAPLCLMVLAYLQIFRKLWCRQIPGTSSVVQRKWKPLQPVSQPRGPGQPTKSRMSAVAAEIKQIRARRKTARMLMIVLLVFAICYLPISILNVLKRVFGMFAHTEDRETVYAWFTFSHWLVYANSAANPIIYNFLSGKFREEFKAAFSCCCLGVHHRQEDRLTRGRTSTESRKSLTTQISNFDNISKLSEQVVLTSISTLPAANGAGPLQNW
Briefly: Assay B: In vitro testing of OX2R potency: OX2R IP1 (HTRF, CHO-K1/hOX2 cells, Orexin A as agonist). The class given is cell-based. The following applies: Orexin A 0.5 nM. An excerpt:
Activation of the orexin receptors expressed in cell lines results in an increase in intracellular IP3 concentration. IP1, a downstream metabolite of IP3, accumulates in cells following receptor activation and is stable in the presence of LiCl. Using Homogeneous Time-Resolved Fluorescence technology with Lumi4-Tb cryptate (commercially available from Cisbio Bioassay.) and a suitable fluorescence plate reader. […] Chem. Genomics 2009, 3, 22-32. This technique is used to characterize pharmacological modification of the orexin receptors.
B. In Vitro Testing of OX2R Potency: OX2R IP1
IP1 measurements are performed in CHO-K1 cells stably expressing the full-length human orexin 2 receptor and the aequorin photoprotein. Cells are cultivated in Ham's nutrient mixture F12 medium with 10% fetal calf serum, in a 37° C., 95% humidity and 5% CO2 incubator. The CHO-K1/hOX2 cell mass is expanded to larger cell numbers. The cells are obtained as frozen cells in cryo-vials and stored until use at −150° C. The viability of the cells after thawing is >90%. In preparation for the assay, 24 hours before the assay, the cells are thawed at 37° C. and immediately diluted with cell culture medium. After centrifugation, the cell pellet is resuspended in medium and then distributed into the assay plates with a density of 5000 cells/25 μL per well. The plates are incubated for one hour at room temperature to reduce edge effects before they are incubated for 24 hours at 37° C./5% CO2. Compounds are prepared by a 8-point serial dilution in DMSO and a final dilution step into assay buffer (HBSS with 20 mM HEPES, 0.1% BSA and 50 mM LiCl, pH 7.4) to ensure a final DMSO concentration of 1% in the assay.
On the day of the assay, cells in the plate are washed twice with 60 μL assay buffer (20 μL buffer remained in the wells after washing), followed by adding 5 μL per well of compounds diluted in assay buffer. After 15 minutes of incubation at room temperature 5 μL per well of Orexin A peptide (final concentration: 0.5 nM) dissolved in assay buffer is added to the assay plate. The assay plate is incubated for 60 minutes at 37° C. Then 5 μL per well of Anti-IP1-Cryptate Tb solution and 5 μL per well of IP1-d2 dilution are added to all well of the plate and the plate is incubated for a further 60 minutes light protected at room temperature. The emission at 615 nm and 665 nm (Excitation wavelength: 320 nm) are measured using an EnVision reader (PerkinElmer). The ratio between the emission at 665 nm and 615 is calculated by the reader.
8-point four parametric non-linear curve fitting and determination of IC50 values and Hill slopes is performed using a regular analysis software e.g. AssayExplorer (Accelrys). In order to establish an agonist concentration independent parameter, Kb values are calculated using the following equation: IC50/((2+(A/EC50)n)^1/n−1) (with A=concentration agonist, EC50=EC50 agonist, n=Hill slope agonist) (see P. Leff, I. G. Dougall, Trends Pharmacol. Sci. 1993, 14(4), 110-112).
Kb values from Assay A (OX1R) and Assay B (OX2R) can then provide a selectivity ratio which is independent of the agonist (Orexin A) concentration.
As to `CCN(C(=O)c1c(-n2nccn2)ccc(C)c1F)[C@@H](C)COc1ccc(C(F)(F)F)cn1` [Example 92], the Kb was 16 nM.

Turning to `CCN(C(=O)c1cccc(Cl)c1-n1nccn1)[C@@H](C)COc1ccc(OC(F)(F)F)cn1` [Example 134], the Kb is 12 nM.

`CCN(C(=O)c1cccc(F)c1-n1nccn1)[C@@H](C)COc1ncc(C(F)(F)F)cc1Cl` [Example 110] returned a Kb of 53 nM.

On to `CCN(C(=O)c1ccc(F)cc1-n1nccn1)[C@@H](C)COc1ccc(Cl)cn1` [Example 28], for which the Kb stood at 86 nM.

`CCN(C(=O)c1ccc(Cl)cc1-n1nccn1)[C@@H](C)COc1ccc(Cl)cn1` [Example 45] displayed a Kb of 21 nM.

`CCN(C(=O)c1cc(C#N)ccc1-n1nccn1)[C@@H](C)COc1ncc(C(F)(F)F)cc1F` [Example 57] showed a Kb of 203 nM.

Take `CCN(C(=O)c1ccccc1-c1noc(C)n1)[C@@H](C)COc1ccc(C(F)(F)F)cn1` [Example 123]: the Kb came to 34 nM.

Compound `CCN(C(=O)c1cccc(F)c1-c1nnc(C)o1)[C@@H](C)COc1ccc(C(F)(F)F)cn1` [Example 18] came in with a Kb of 218 nM.

As for `CCN(C(=O)c1c(F)cccc1-c1ncccn1)[C@@H](C)COc1ccc(C(F)(F)F)cn1` [Example 116], the Kb stood at 45 nM.

System in a further data set: not listed separately
The data set can be described thus: Assay C: Metabolic stability in human liver microsomes (Human MST). Type of data set: in vitro ADME. Conditions: pooled human liver microsomes, pH 7.6; human liver microsomes 1 mg/mL, compound 1 μM, 37° C., NADPH; read-out: Human MST t1/2. How it is done:
C. Assessment of Metabolic Stability in Human Liver Microsomes (Human MST)
The metabolic stability of the compounds according to the invention may be investigated as follows:
The metabolic degradation of the test compound is assayed at 37° C. with pooled human liver microsomes. The final incubation volume of 100 μL per time point contains TRIS buffer pH 7.6 at room temperature (0.1 M), MgCl2 (5 mM), microsomal protein (1 mg/mL) and the test compound at a final concentration of 1 μM. Following a short pre-incubation period at 37° C., the reactions are initiated by addition of beta-nicotinamide adenine dinucleotide phosphate, reduced form (NADPH, 1 mM), and terminated by transferring an aliquot into solvent after different time points. After centrifugation (10000 g, 5 min), an aliquot of the supernatant is assayed by LC-MS/MS for the amount of parent compound. The half-life (t1/2) is determined by the slope of the semi-logarithmic plot of the concentration-time profile.
For `CCN(C(=O)c1c(-n2nccn2)ccc(C)c1F)[C@@H](C)COc1ccc(C(F)(F)F)cn1` [Example 92], the half-life at 1 μM was 18 min.

For `CCN(C(=O)c1cccc(Cl)c1-n1nccn1)[C@@H](C)COc1ccc(OC(F)(F)F)cn1` [Example 134], the half-life at 1 μM was 64 min.

Regarding `CCN(C(=O)c1cccc(F)c1-n1nccn1)[C@@H](C)COc1ncc(C(F)(F)F)cc1Cl` [Example 110], the half-life at 1 μM was 100 min.

Regarding `CCN(C(=O)c1ccc(F)cc1-n1nccn1)[C@@H](C)COc1ccc(Cl)cn1` [Example 28], the half-life at 1 μM worked out at 39 min.

In the case of `CCN(C(=O)c1ccc(Cl)cc1-n1nccn1)[C@@H](C)COc1ccc(Cl)cn1` [Example 45], the half-life at 1 μM came to 18 min.

Consider `CCN(C(=O)c1cc(C#N)ccc1-n1nccn1)[C@@H](C)COc1ncc(C(F)(F)F)cc1F` [Example 57], for which the half-life at 1 μM is greater than 130 min.

In the case of `CCN(C(=O)c1ccccc1-c1noc(C)n1)[C@@H](C)COc1ccc(C(F)(F)F)cn1` [Example 123], the half-life at 1 μM amounted to 23 min.

As to `CCN(C(=O)c1cccc(F)c1-c1nnc(C)o1)[C@@H](C)COc1ccc(C(F)(F)F)cn1` [Example 18], the half-life at 1 μM was determined as 74 min.

Take `CCN(C(=O)c1c(F)cccc1-c1ncccn1)[C@@H](C)COc1ccc(C(F)(F)F)cn1` [Example 116]: the half-life at 1 μM was determined as 33 min.
